The results in this text go back to patent publication US8853392B2, “Benzamide mGluR5 positive allosteric modulators and methods of making and using same” (Vanderbilt University, priority 2007, dated 2014).

Where two headings read alike, the source gives them in different places.

In this experiment the target is T1, rat mGluR5 (Rattus norvegicus, UniProt P31424).
T1 construct: expressed in transfected cells; host or cells: human embryonic kidney (HEK) cells
In words: potentiation of mGluR5 response to glutamate, Ca2+ fluorescence (FDSS) in HEK cells transfected with rat mGluR5. The conditions noted are these: for EC50: read-out: EC50. It is filed as cell-based. On the procedure: Human embryonic kidney (HEK) cells transfected with rat mGluR5 were plated in clear bottom assay plates for assay in a Functional Drug Screening System (FDSS). The cells were loaded with a Ca^2+-sensitive fluorescent dye (e.g., Fluo-4), and the plates were washed and placed in the FDSS instrument. After establishment of a fluorescence baseline for twelve seconds, the compounds of the present invention were added to the cells, and the response in cells was measured. Five minutes later, an mGluR5 agonist (e.g., glutamate, 3,5-dihydroxyphenylglycine, or quisqualate) was added to the cells, and the response of the cells was measured. Potentiation of the agonist response of mGluR5 by the compounds in the present invention was observed as an increase in response to non-maximal concentrations of agonist (here, glutamate) in the presence of compound compared to the response to agonist in the absence of compound.
The above described assay operated in two modes. In the first mode, a range of concentrations of the present compounds were added to cells, followed by a single fixed concentration of agonist. If a compound acted as a potentiator, an EC50 value for potentiation and a maximum extent of potentiation by the compound at this concentration of agonist was determined by non-linear curve fitting. In the second mode, several fixed concentrations of the present compounds were added to various wells on a plate, followed by a range of concentrations of agonist for each concentration of present compound; the EC50 values for the agonist at each concentration of compound were determined by non-linear curve fitting. A decrease in the EC50 value of the agonist with increasing concentrations of the present compounds (a leftward shift of the agonist concentration-response curve) is an indication of the degree of mGluR5 potentiation at a given concentration of the present compound. An increase in the EC50 value of the agonist with increasing concentrations of the present compounds (a rightward shift of the agonist concentration-response curve) is an indication of the degree of mGluR5 antagonism at a given concentration of the present compound. The second mode also indicates whether the present compounds also affect the maximum response to mGluR5 to agonists.
Human embryonic kidney (HEK) cells transfected with rat mGluR5 were plated in clear-bottomed, poly-D-lysine-coated assay plates in glutamate-glutamine-free medium growth and incubated overnight at 37° C. in 5% CO2. The following day, cells were loaded with 2 μM calcium indicator dye, fluo-4 AM, for 1 h at 37° C. Dye was removed and replaced with assay buffer containing 1× Hanks balanced salt solution (Invitrogen, Carlsbad, Calif.), 20 mM HEPES, and 2.5 mM probenecid, pH 7.4. Cell plates were then loaded into the Functional Drug Screening System 6000 (FDSS 6000, Hamamatsu, Japan). After establishment of a fluorescence baseline for twelve seconds, the compounds of the present invention were added to the cells, and the response in cells was measured. Five minutes later, an mGluR5 agonist (e.g., glutamate, 3,5-dihydroxyphenylglycine, or quisqualate) was added to the cells, and the response of the cells was measured during a 1 minute incubation with agonists. Typically, the effect of test compounds of the present invention was on an EC20 concentration of glutamate was measured. All test compounds were dissolved and diluted in 100% DMSO and then serially diluted into assay buffer for a 2.5× stock in 0.25% DMSO; stock compounds were then added to the assay for a final DMSO concentration of 0.1%. Calcium fluorescence measures were recorded as fold over basal fluorescence; raw data was then normalized to the maximal response to agonist. Potentiation of the agonist response of mGluR5 by the compounds in the present invention was observed as an increase in response to non-maximal concentrations of agonist (here, glutamate) in the presence of compound compared to the response to agonist in the absence of compound. […]

The mark [1] stands for this setting: Table 1, EC50 for potentiating the mGluR5 receptor, unit inferred.
Setting [2] is: HEK293, read-out: % Glu Max, maximum extent of potentiation, normalized to maximal response to glutamate, SAR tables.
Setting [3] is: potentiation of glutamate response, HEK cells transfected with rat mGluR5, SAR tables.
The mark [4] stands for this setting: HEK293, maximum extent of potentiation, normalized to maximal response to glutamate, SAR tables, read-out: % Glu Max.

T1 sequence (P31424 21-1203): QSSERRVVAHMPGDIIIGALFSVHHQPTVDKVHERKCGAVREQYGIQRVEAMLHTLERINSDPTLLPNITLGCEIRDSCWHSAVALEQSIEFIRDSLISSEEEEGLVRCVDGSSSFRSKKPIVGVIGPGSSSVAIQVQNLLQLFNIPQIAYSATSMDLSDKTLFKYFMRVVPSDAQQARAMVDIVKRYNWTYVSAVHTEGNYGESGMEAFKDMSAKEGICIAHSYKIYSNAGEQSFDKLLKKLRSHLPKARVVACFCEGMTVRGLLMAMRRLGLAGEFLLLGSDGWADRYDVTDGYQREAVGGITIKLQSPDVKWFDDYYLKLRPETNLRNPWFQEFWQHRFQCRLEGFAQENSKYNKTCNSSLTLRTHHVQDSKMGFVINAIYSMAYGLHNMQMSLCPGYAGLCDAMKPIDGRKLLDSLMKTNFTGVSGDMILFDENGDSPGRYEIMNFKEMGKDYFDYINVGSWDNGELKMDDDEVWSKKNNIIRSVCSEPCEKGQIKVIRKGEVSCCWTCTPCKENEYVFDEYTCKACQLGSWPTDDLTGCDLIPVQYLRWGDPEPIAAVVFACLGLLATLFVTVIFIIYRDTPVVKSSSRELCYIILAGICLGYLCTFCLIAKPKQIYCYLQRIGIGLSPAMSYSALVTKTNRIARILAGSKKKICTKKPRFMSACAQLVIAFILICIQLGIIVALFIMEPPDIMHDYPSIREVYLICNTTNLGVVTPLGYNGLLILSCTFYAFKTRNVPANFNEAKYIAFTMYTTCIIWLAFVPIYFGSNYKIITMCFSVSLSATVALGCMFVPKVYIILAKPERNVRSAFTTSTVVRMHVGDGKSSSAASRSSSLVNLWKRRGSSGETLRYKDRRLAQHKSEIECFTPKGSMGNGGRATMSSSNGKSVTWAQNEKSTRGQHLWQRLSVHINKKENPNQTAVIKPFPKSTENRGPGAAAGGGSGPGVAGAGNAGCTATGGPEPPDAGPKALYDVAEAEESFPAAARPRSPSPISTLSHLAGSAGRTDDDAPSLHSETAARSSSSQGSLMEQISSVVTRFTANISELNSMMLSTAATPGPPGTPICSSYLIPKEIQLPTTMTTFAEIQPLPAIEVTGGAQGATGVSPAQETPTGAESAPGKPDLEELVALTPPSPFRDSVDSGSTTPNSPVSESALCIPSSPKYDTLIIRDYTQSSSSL

What is called EC50 is the concentration that produces a half-maximal response. On to `CCN1CCC[C@H]1CNC(=O)c1ccc(C#Cc2ccccc2)cc1` [(S)-N-((1-ethylpyrrolidin-2-yl)methyl)-4-(phenylethynyl)benzamide], for which the EC50 under setting [1] amounted to 1.03 µM.
Still for that read-out and setting: as for `O=C(c1ccc(C#Cc2ccccc2)cc1)N1CCC2CCCCC2C1` (stereo not drawn) [(octahydroisoquinolin-2(1H)-yl)(4-(phenylethynyl)phenyl)methanone], the figure is 0.593 µM.
Take `CC1(O)CCN(C(=O)c2ccc(C#Cc3ccccc3)cc2)CC1` [Compound 7a, (4-hydroxy-4-methylpiperidin-1-yl)(4-(phenylethynyl)phenyl)methanone]: the Emax under setting [2] was found to be 82.5%. Moreover, the half-maximal effective concentration (EC50) is, setting by setting: under setting [1], 0.0394 µM; under setting [3], 0.0035 µM.
Turning to `CC(C)C1(O)CCN(C(=O)c2ccc(C#Cc3ccccc3)cc2)CC1` [Compound 7c, (4-hydroxy-4-isopropylpiperidin-1-yl)(4-(phenylethynyl)phenyl)methanone], under setting [2], the Emax stood at 89.1%. Besides, the EC50 came out at 1.8 µM under setting [1] and 1.77 µM under setting [3].
As to `O=C(c1ccc(C#Cc2ccccc2)cc1)N1CCC(O)(c2cccs2)CC1` [Compound 7d, (4-hydroxy-4-(thiophen-2-yl)piperidin-1-yl)(4-(phenylethynyl)phenyl)methanone], the Emax under setting [2] worked out at 95%. The 50% effective concentration (EC50) by setting is: under setting [1], 1.07 µM; under setting [3], 1 µM.
Regarding `O=C(c1ccc(C#Cc2ccccc2)cc1)N1CCC(O)(c2ccc(F)cc2)CC1` [Compound 7e], the Emax under setting [2] was 87%. In addition, the 50% effective concentration (EC50) under setting [3] stood at 1.19 µM.
In the same order, the values of `O=C(c1ccc(C#Cc2ccccc2)cc1)N1CCC(O)(c2cccc(F)c2)CC1` [Compound 7f] are 92% and 1.6 µM.
For `COc1ccc(C2(O)CCN(C(=O)c3ccc(C#Cc4ccccc4)cc3)CC2)cc1` [Compound 7g] the same measures were 91% and 2.45 µM.
Turning to `O=C(c1ccc(C#Cc2ccccc2)cc1)N1CC(O)C1` [Compound 9a, (3-hydroxyazetidin-1-yl)(4-(phenylethynyl)phenyl)methanone], under setting [4], the Emax was 67.3%. Also, the EC50 under setting [1] stood at 0.314 µM and the EC50 under setting [3] is 0.212 µM.
In the case of `CC1(O)CN(C(=O)c2ccc(C#Cc3ccccc3)cc2)C1` [Compound 9b, (3-hydroxy-3-methylazetidin-1-yl)(4-(phenylethynyl)phenyl)methanone], the Emax under setting [4] was found to be 82%. The EC50 reads like this: under setting [1], 0.119 µM; under setting [3], 0.089 µM.
In the same order, the values of `CCCC1(O)CN(C(=O)c2ccc(C#Cc3ccccc3)cc2)C1` [Compound 9c, (3-hydroxy-3-propylazetidin-1-yl)(4-(phenylethynyl)phenyl)methanone] are 59.8%, 0.5 µM and 0.423 µM.
For `O=C(c1ccc(C#Cc2ccccc2)cc1)N1CC(O)(c2cccs2)C1` [Compound 9d, (3-hydroxy-3-(thiophen-2-yl)azetidin-1-yl)(4-(phenylethynyl)phenyl)methanone] the same measures were 43.7%, 1.71 µM and 1.47 µM.
`O=C(c1ccc(C#Cc2ccccc2F)cc1)N1CCC(O)CC1` [Compound 19a, (4-((2-fluorophenyl)ethynyl)phenyl)(4-hydroxypiperidin-1-yl)methanone]: the Emax under setting [4] stood at 80%. Besides, the 50% effective concentration (EC50) reads like this: under setting [1], 0.0281 µM; under setting [3], 0.0273 µM.
In the same order, the values of `O=C(c1ccc(C#Cc2cccc(F)c2)cc1)N1CCC(O)CC1` [Compound 19b, (4-((3-fluorophenyl)ethynyl)phenyl)(4-hydroxypiperidin-1-yl)methanone] are 77%, 0.00325 µM and 0.00325 µM.
For `O=C(c1ccc(C#Cc2ccc(F)cc2)cc1)N1CCC(O)CC1` [Compound 19c, (4-((4-fluorophenyl)ethynyl)phenyl)(4-hydroxypiperidin-1-yl)methanone] the same measures were 63%, 0.0152 µM and 0.0147 µM.
As to `O=C(c1ccc(C#Cc2ccc(F)c(F)c2)cc1)N1CCC(O)CC1` [Compound 19d, (4-((3,4-difluorophenyl)ethynyl)phenyl)(4-hydroxypiperidin-1-yl)methanone], under setting [4], the Emax turned out to be 52%. The EC50 by setting is: under setting [1], 0.0739 µM; under setting [3], 0.0687 µM.
In the same order, the values of `O=C(c1ccc(C#Cc2cc(F)cc(F)c2)cc1)N1CCC(O)CC1` [Compound 19e, (4-((3,5-difluorophenyl)ethynyl)phenyl)(4-hydroxypiperidin-1-yl)methanone] are 67%, 1 µM and 0.593 µM.
For `Cc1cc(C#Cc2ccc(C(=O)N3CCC(O)CC3)cc2)ccc1F` [Compound 19f, (4-((4-fluoro-3-methylphenyl)ethynyl)phenyl)(4-hydroxypiperidin-1-yl)methanone] the same measures were 76%, 0.832 µM and 0.5 µM.
In the same order, the values of `O=C(c1ccc(C#Cc2ccc(F)cc2F)cc1)N1CCC(O)CC1` [Compound 19g, (4-((2,4-difluorophenyl)ethynyl)phenyl)(4-hydroxypiperidin-1-yl)methanone] are 58%, 2.03 µM and 1.97 µM.
For the compound `Cc1ccc(C#Cc2ccc(C(=O)N3CCC(O)CC3)cc2)cc1` [Compound 19h], the “EC50 (nM)” value under setting [3] was “inactive”.
`O=C(c1ccc(C#Cc2cccc(C(F)(F)F)c2)cc1)N1CCC(O)CC1` [Compound 19i, (4-hydroxypiperidin-1-yl)(4-((3-(trifluoromethyl)phenyl)ethynyl)phenyl)methanone]: the Emax under setting [4] is 68%. In addition, the EC50 under setting [1] was found to be 2.21 µM and the EC50 under setting [3] was determined as 2.06 µM.
`O=C(c1ccc(C#Cc2ccccn2)cc1)N1CCC(O)CC1` [Compound 19k]: the Emax under setting [4] is 49%. Besides, the EC50 stood at 2.45 µM under setting [1] and 2.21 µM under setting [3].
For `O=C(c1ccc(C#CC2CCCCC2)cc1)N1CCC(O)CC1` [Compound 19m, (4-(cyclohexylethynyl)phenyl)(4-hydroxypiperidin-1-yl)methanone] the same measures were 77%, 1.87 µM and 1.79 µM.
For `CC1(O)CCN(C(=O)c2ccc(C#Cc3ccccc3F)cc2)CC1` [Compound 20a, (4-((2-fluorophenyl)ethynyl)phenyl)(4-hydroxy-4-methylpiperidin-1-yl)methanone] the same measures were 86%, 0.0379 µM and 0.0349 µM.
For `CC1(O)CCN(C(=O)c2ccc(C#Cc3cccc(F)c3)cc2)CC1` [Compound 20b, (4-((3-fluorophenyl)ethynyl)phenyl)(4-hydroxy-4-methylpiperidin-1-yl)methanone] the same measures were 92%, 0.0206 µM and 0.0194 µM.
Consider `CC1(O)CCN(C(=O)c2ccc(C#Cc3ccc(F)cc3)cc2)CC1` [Compound 20c, (4-((4-fluorophenyl)ethynyl)phenyl)(4-hydroxy-4-methylpiperidin-1-yl)methanone], for which, under setting [4], the Emax turned out to be 91%. In addition, the EC50 came out at 0.0542 µM under setting [1] and 0.0394 µM under setting [3].
On to `CC1(O)CCN(C(=O)c2ccc(C#Cc3ccc(F)c(F)c3)cc2)CC1` [Compound 20d, (4-((3,4-difluorophenyl)ethynyl)phenyl)(4-hydroxy-4-methylpiperidin-1-yl)methanone], for which the Emax under setting [4] came out at 91%. For the same compound, the EC50 by setting is: under setting [1], 0.156 µM; under setting [3], 0.137 µM.
